In test [1] the test system is Candida albicans. The test is described as follows: Inhibition of hyphal formation in Candida albicans SC5314 cultured in spider medium assessed as reduction in hyphal length at 25 ug/ml relative to control. The class given is functional.
The test system of test [2] is Candida albicans. The test is described as follows: Inhibition of biofilm formation in Candida albicans SC5314 at 25 ug/ml by XTT assay relative to control. The class given is functional.
For test [3], the system named is Candida albicans. Nature of the test: Inhibition of hyphal formation in Candida albicans SC5314 cultured in spider medium assessed as reduction in hyphal length. The class given is functional, organism-based. Conditions: dose 3.12-25 µg/ml.
In test [4] the test system is Candida albicans. Nature of the test: Inhibition of biofilm formation in Candida albicans SC5314 by XTT assay. The class given is functional, organism-based. (In general: Tetrazolium assays rely on reduction of a dye to a coloured formazan, in cell work by metabolically active cells.)
In test [5] the test system is Candida albicans. Nature of the test: Inhibition of biofilm formation in Candida albicans SC5314 at 6.25 to 25 ug/ml by XTT assay. Format: functional, organism-based. The following applies: dose 6.25-25 µg/ml.

The source made the active and inactive calls. The calls are words filed in the database; no cut-off is given here.

By inhibition is commonly meant the percentage by which the read-out fell short of the control.

As for `CC1(C)C=Cc2c(c(-c3ccccc3)c[nH]c2=O)O1`, the results for the inhibition at 25 µg/mL in test [1] and in test [2] were above 50% and 18.7%, respectively. In test [3], the inhibition result was “Dose-dependent effect”.

Consider `Cc1ccc(-c2c(Cl)[nH]c(=O)c3c2O[C@H](C)[C@@H]2COc4ccccc4[C@H]32)cc1`, for which, in test [4], the inhibition entry is “inactive”. Besides, the inhibition at 25 µg/mL in test [1] was above 50%. Moreover, the inhibition result in test [3] is “Dose-dependent effect”.

As to `C[C@H]1Oc2c(-c3cccs3)c(Cl)[nH]c(=O)c2[C@H]2c3ccccc3OC[C@H]21`, in test [1], the inhibition at 25 µg/mL worked out at 30%.

For the compound `CC(C)=CCC1(C)C=Cc2c(c(-c3ccc(C)cc3)c(Cl)[nH]c2=O)O1` (stereo not drawn), in test [1], the inhibition at 25 µg/mL was determined as 30%.

For the compound `CC(C)=CC[C@]1(C)Oc2c(-c3ccc(C)cc3)c(Cl)[nH]c(=O)c2[C@H]2c3ccccc3OC[C@H]21`, in test [1], the inhibition at 25 µg/mL came to 30%.

As to `Cc1ccc(-c2c[nH]c(=O)c3c2OC(C)(C)C=C3)cc1`, the inhibition at 25 µg/mL in test [1] is above 50%; in test [2], 17.9%. Moreover, the inhibition entry in test [3] is “Dose-dependent effect”.

Consider `C[C@H]1CC[C@H]2[C@H](C1)c1c(c(-c3cccs3)c(Cl)[nH]c1=O)OC2(C)C`, for which, in test [1], the inhibition at 25 µg/mL was determined as 30%.

`CC1(C)C=Cc2c(c(-c3cccs3)c(Cl)[nH]c2=O)O1`: the inhibition entry in test [5] was “Active”. Further, the inhibition at 25 µg/mL in test [1] is above 50%. In addition, the inhibition result in test [3] is “Dose-dependent effect”.

For the compound `CC1(C)C=Cc2c(c(-c3ccccc3)c(Cl)[nH]c2=O)O1`, the inhibition at 25 µg/mL in test [1] was 30%.

As for `Cc1ccc(-c2c(Cl)[nH]c(=O)c3c2OC(C)(C)C=C3)cc1`, in test [1], the inhibition at 25 µg/mL came to 30%.
